IC50 and viability, T/C data for six molecules are collected here from PubChem BioAssay AID2060354 (Molecular Pharmacology Branch, DTP, NCI, 2025).

This assay concerns 519858-162-T-J1-PDC spheroid growth inhibition. Description: Anticancer human tumor 519858-162-T-J1-PDC patient-derived colon adenocarcinoma cell line growth inhibition [TAK]. The note with it: spheroids with HUVEC and MSC; for viability, T/C: stronger effect = lower value. The source says:
Combinatorial screen of targeted agents with TAK-243 and ipatasertib in multi-cell type tumor spheroids
A high-throughput screen of multi-cell type tumor spheroids was designed to identify active combinations of targeted small molecules and TAK-243 or ipatasertib. Complex spheroids include a stromal component modeled by human endothelial cells (HUVEC) and fibroblasts modeled by human mesenchymal stem cells (MSCs). The concentration ranges selected for each drug and investigational agent were based upon clinically achievable concentrations if the clinical Cmax of the agent was known.
Compounds. The drugs and investigational agents: TAK-243 (785004), ipatasertib (767898), everolimus (733504), selumetinib (741078), bortezomib (756655), trametinib (758246), ixazomib (758254), vemurafenib (761431), dabrafenib (764134), sapanisertib (764658), alpelisib (765974), and copanlisib (816437), were obtained from the National Cancer Institute (NCI) Developmental Therapeutics Program Chemical Repository. The FDA-approved anticancer drug set is available from the NCI Developmental Therapeutics Program. […] The stock solutions were prepared in dimethyl sulfoxide (DMSO, Sigma-Aldrich, St. Louis, MO, cat. D2650) at 800-fold the tested concentration and stored at -70 degrees C prior to their use. All drugs and investigational agents were tested over a range starting from a high concentration at or near the clinical Cmax and decreasing in half-log increments. If the clinical Cmax for an agent had not been determined, the highest concentration tested was 10 microM.
NCI60 Cell Culture. NCI60 cell lines were obtained from the NCI Developmental Therapeutics Program Tumor Repository. For each lot of cells, the Repository performed Applied Biosystems AmpFLSTR Identifiler testing with PCR amplification to confirm consistency with the published Identifier STR profile for each cell line. Cells were kept in continuous culture for no more than 20 passages. The optimal seeding densities for each of the cell lines at each time point assessed were determined prior to performing the concentration response studies. Briefly, the NCI60 human tumor lines were grown as monolayers in RPMI 1640 medium supplemented with 10% FBS and 2 mmol/L L-glutamine.
An additional 2 lines were from the NCI60 cell line panel including melanomas, MALME-3M and SK-MEL-2. Pooled donor human umbilical vein endothelial cells (HUVEC, Lonza, cat. CC-2519) and human mesenchymal stem cells (hMSC, Lonza, cat. PT-2501) were purchased from Lonza (Walkersville, MD).
PDMR cell lines were grown in complete medium (DC medium): Dulbecco's modified Eagle's medium (DMEM)/F12 supplemented with 5% fetal bovine serum (FBS), 2 mM L-glutamine, 100 U/mL penicillin and 100 µg/ml streptomycin, 0.4 µg/ml hydrocortisone, 10 ng/ml epidermal growth factor (EGF) recombinant human protein, 24 µg/mL adenine, and 0.1 mg/mL primocin. During culture from frozen stock vials, PDMR cells were cultured in the same medium containing 10 µM Y-27632 (see Table 3). The PDCs were cultured in complete DMEM/F12 media without 10 microM Y-27632 dihydrochloride for at least two passages prior to the screen. The pooled donor HUVEC and hMSC were cultured in endothelial cell growth medium 2 (PromoCell, Heidelberg, Germany, cat. C-22011) and mesenchymal stem cell growth medium 2 (PromoCell, cat. C-28009), respectively. For all experiments, HUVEC and hMSC were used at passages </=5.
For the pre-screen, cell seeding densities were determined from a titration spanning the range from 5,000 to 313 cells per well. The mct-spheroids including 60% malignant cells, 25% HUVEC and 15% MSC dispensed as a mixture into U-bottom Ultra-Low Attachment 384-well plates (Corning, NY)
High-throughput Drug Combination Screening.
Prior to their inoculation into 384-well plates, malignant cells, HUVEC, and hMSC were removed from T flasks using TrypLE express (Thermo Fisher Scientific, cat. 12605036) and harvested by centrifugation for 5 min at 233 x g. […]

Where “and” joins values, the source holds several entries; their conditions need not be identical. Identical values can stand only once. A value given as a limit tells only on which side of the number the result lay.
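Note: spheroids exposed to drugs for 7 days.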

`CC(C)(C)c1nc(-c2cccc(NS(=O)(=O)c3c(F)cccc3F)c2F)c(-c2ccnc(N)n2)s1` + CC(C)NCC(C(=O)N1CCN(c2ncnc3c2C(C)CC3O)CC1)c1ccc(Cl)cc1: the IC50 (commonly the concentration at which inhibition is half-maximal) is above 10000 nM (curve of first compound, second compound 0.3 µM); above 10000 nM (curve of first compound, second compound 0.949 µM); above 10000 nM (curve of first compound, second compound 3 µM); above 10000 nM (curve of first compound, second compound 9.49 µM); above 10000 nM (curve of first compound, second compound 30 µM). Further, the viability, T/C (usually the result in the treated group divided by that in the control group, in per cent) came to 112% (second compound 0.3 µM, first compound 0.0316 µM); 128% (second compound 0.3 µM, first compound 0.1 µM); 115% (second compound 0.3 µM, first compound 0.316 µM); 130% (second compound 0.3 µM, first compound 1 µM); 107% (second compound 0.3 µM, first compound 3.16 µM); 77.9% (second compound 0.3 µM, first compound 10 µM). Besides, the viability, T/C is, setting by setting: (second compound 0.949 µM, first compound 0.0316 µM) 109%; (second compound 0.949 µM, first compound 0.1 µM) 115%; (second compound 0.949 µM, first compound 0.316 µM) 130%; (second compound 0.949 µM, first compound 1 µM) 113%; (second compound 0.949 µM, first compound 3.16 µM) 100%; (second compound 0.949 µM, first compound 10 µM) 86.7%. The viability, T/C by setting is: (second compound 3 µM, first compound 0.0316 µM) 102%; (second compound 3 µM, first compound 0.1 µM) 102%; (second compound 3 µM, first compound 0.316 µM) 116%; (second compound 3 µM, first compound 1 µM) 97.3%; (second compound 3 µM, first compound 3.16 µM) 106%; (second compound 3 µM, first compound 10 µM) 61.2%. Moreover, the viability, T/C (second compound 9.49 µM, first compound 0.0316 µM) was found to be 104%; the viability, T/C (second compound 9.49 µM, first compound 0.1 µM) came out at 92.6%; the viability, T/C (second compound 9.49 µM, first compound 0.316 µM) was determined as 112%; the viability, T/C (second compound 9.49 µM, first compound 1 µM) came out at 91.6%; the viability, T/C (second compound 9.49 µM, first compound 3.16 µM) amounted to 84.4%; the viability, T/C (second compound 9.49 µM, first compound 10 µM) is 72.6%. The viability, T/C by setting is: (second compound 30 µM, first compound 0.0316 µM) 105%; (second compound 30 µM, first compound 0.1 µM) 86.9%; (second compound 30 µM, first compound 0.316 µM) 98.1%; (second compound 30 µM, first compound 1 µM) 82.2%; (second compound 30 µM, first compound 3.16 µM) 83.2%; (second compound 30 µM, first compound 10 µM) 75.4%.

Consider `CC(C)CC(NC(=O)CNC(=O)c1cc(Cl)ccc1Cl)B1OC(=O)CC(CC(=O)O)(C(=O)O)O1` (centres undefined), for which the viability, T/C reads like this: (compound 0.000316 µM) 86.2% and 83.8%; (compound 0.00316 µM) 106% and 95.6%; (compound 0.01 µM) 92.6% and 72.9%; (compound 0.0316 µM) 74.9% and 77%; (compound 0.1 µM) 74.5% and 84.2%. For the same molecule, the IC50 (curve of compound) is above 100 nM.

Regarding `CC(C)n1nc(-c2ccc3oc(N)nc3c2)c2c(N)ncnc21`, the viability, T/C was 104% and 100% (compound 0.001 µM); 94.8% and 95.9% (compound 0.00316 µM); 112% and 97.5% (compound 0.01 µM); 78.9% and 93.1% (compound 0.0316 µM); 74.1% and 61.6% (compound 0.1 µM). For the same molecule, the IC50 (curve of compound) was above 100 nM.

In the case of `Cn1cnc2c(F)c(Nc3ccc(Br)cc3Cl)c(C(=O)NOCCO)cc21`, the viability, T/C runs as follows: (compound 0.00949 µM) 89.7% and 85.4%; (compound 0.03 µM) 76.2% and 71.8%; (compound 0.0949 µM) 45.6% and 51.8%; (compound 0.3 µM) 32.3% and 33.5%; (compound 0.949 µM) 20.3% and 21.6%; (compound 3 µM) 17.2% and 18.4%. Moreover, the IC50 (curve of compound) is 89.6 nM and 106 nM.

With `CC(C)NCC(C(=O)N1CCN(c2ncnc3c2C(C)CC3O)CC1)c1ccc(Cl)cc1` (centres undefined), the viability, T/C was 87% [middle of 10 runs] (compound 3 µM) and 86.8% [middle of 10 runs] (compound 30 µM). Besides, the IC50 (compound alone, run of 02/28/2020) was above 30000 nM.

Regarding `CC(=O)Nc1cccc(-n2c(=O)n(C3CC3)c(=O)c3c(Nc4ccc(I)cc4F)n(C)c(=O)c(C)c32)c1`, the viability, T/C by setting is: (compound 94.9 pM) 89.9% and 91.8%; (compound 0.0003 µM) 93.7% and 106%; (compound 0.000949 µM) 72.7% and 67.4%; (compound 0.003 µM) 71.1% and 79.3%; (compound 0.00949 µM) 34.1% and 44.1%; (compound 0.03 µM) 21.4% and 26.3%. The IC50 (curve of compound) was 5.61 nM and 8.51 nM.
